Measured values reported in patent US7662547B2, “Compositions and methods for detecting and treating HIV infections” (priority 2006, dated 2010).

How the values were obtained:
HIV-1 = test: PCR amplification of intracellular viral late DNA (viral entry); assay type: cell-based, HIV-1NL4-3; conditions: 120 nM
Description: To remove plasmid DNA contamination, viral stock was treated with Benzonase (Novagen, Madison, WI) (250 U/ml) at […] for 15 min before infection. Total cellular DNA were purified using SV total RNA isolation kit as recommended by the manufacture (Promega, Madison, WI). For detection of viral late reverse transcription products by PCR, forward primer HIV/Tat-Rev-5’(5′[…] 3′; SEQ ID NO: 6) and reverse primer LTR-gag2 (5′[…] 3′; SEQ ID NO: 7) were used. PCR was carried out in 1× Ambion PCR buffer, 125 μM dNTP, 50 pmol each primer, 1U SuperTaq Plus (Ambion Inc. Austin, TX) with 30 cycles at 94° C. for 20 seconds, 68° C. for 60 seconds. For relative quantification, the cellular-actin pseudogene were co-amplified using QuantumRNA-actin Internal Standards (Ambion Inc. Austin, TX), with a ratio from 5/5 to 1/9 for actin primer/competitor.
Thus, the effect of Jas on T cell activity was determined. FIG. 3A illustrates inhibition of HIV-1 latent infection by Jas. Effects of Jas on LFA-1 activation also were tested. Jas treated or untreated resting T cells were activated by anti-CD3/CD28 bead and stained with human ICAM-1/Fc chimera and analyzed by flow cytometer. The effects of Jas on IL-2 secretion also were measured. […] Cells were treated with Jas for 2 hours, washed, infected with HIV-1 for 5 days, then activated by anti-CD3/CD28 bead. […]

CD4/CXCR4 distribution = test: Confocal microscopy of CD4 and CXCR4 distribution on resting CD4 T cells; assay type: cell-based, human; conditions: 120 nM, 2 hours
From the text: Stained cells were imaged using a Zeiss Laser Scanning Microscope (Thornwood, N.Y.), LSM 510 META, with a 40 NA 1.3 or 60 NA 1.4 oil Dic Plan-Neofluar objective. Samples were excited with two laser lines, 488 nm for GFP and 543 nm for Alexa 594. Images were simultaneously recorded in three channels: channel one: fluorescent emissions from 505 to 530 nm for GFP (green); channel two: emissions from 580 to 650 nm for Alexa 594 (red); channel three: DIC. Images were processed and analyzed by the LSM 510 META software.
FIG. 8 illustrates confocal microscopy of CD4 and CXCR4 distribution on resting CD4 T cells treated with 120 nM Jas. Resting CD4 T cells were treated with 120 nM of Jas for 2 hours, then fixed and stained with a FITC-labeled anti-human CD4 monoclonal antibody and a biotin-labeled anti-human CXCR4 monoclonal antibody followed by Alexa Fluor-594 labeled streptavidin (right panel). Untreated resting CD4 T cells were used as a control (left panel).

C/C1=C\[C@H](C)C[C@H](C)OC(=O)C[C@H](c2ccc(O)cc2)NC(=O)[C@@H](Cc2c(Br)[nH]c3ccccc23)N(C)C(=O)[C@H](C)NC(=O)[C@@H](C)C1 [Jas, Jasplakinolide]
intracellular viral DNA, treated vs untreated cells (HIV-1): did not detect any difference | CD4/CXCR4 distribution on the surface, treated vs untreated cells (CD4/CXCR4 distribution): did not reveal any significant difference
